Earlier results on one substance are cited in US6485659B1, “Electrical apparatus with dielectric fluid blend of polyalphaolefins and polyol esters or triglycerides” (priority 1995, dated 2002).

Where two headings read alike, the source gives them in different places. Where only a bound is given, the exact number is not on record here.

The conditions of data set [1]: within 7 days; Nippon.
In data set [2] the test system is rats. The conditions noted are these: rat, in vivo.
The test system of data set [3] is rats. The conditions noted are these: for chronic toxicity findings: rat, in vivo, po.

For the substance phenyl-ortho-tolyl-ethane [POXE], the biodegradation in data set [1] is reported as 100% biodegradation within 7 days (Nippon). In addition, the LD50 in rats in the data set on rats [2] is 2.3 ml/kg (Dielectrol III, Saperstein and Faeder article). In addition, the chronic toxicity findings result in the data set on rats [3] is “showed lower weight gain, and liver/kidney enlargement (Dielectrol - Saperstein and Faeder.)”; with rats [3] (146 mg/kg/day), <146 mg/kg/day showed little to no effects. (Nippon Oil/Saperstein and Faeder). Further, the mortality result in the data set on rats [3] (rats, oral, 0.58 ml/kg/day for 1 month, Dielectrol, Saperstein and Faeder) is reported as “In rats, 0.58 ml/kg/day for 1 month yielded 50% mortality. 0.146 ml/kg/day for 3-6 months”.
